Activity data for four molecules are collected here from ChEMBL document CHEMBL1146739, “Alpha,alpha-trehalose derivatives bearing guanidino groups as inhibitors to HIV-1 Tat-TAR RNA interaction in human cells” (Bioorg Med Chem Lett, 2004).

The test system of the experiment is Nucleic Acid. Briefly: Inhibitory activity against TatTAR RNA interaction in human cells by Tat-dependent HIV-1 long terminal repeats (LTR)-driven chloramphenicol acetyltransferase assay at 3 uM concentration; decreased from 69.5 to 44.2. Also noted: unit not given here. In kind it is cell-based.
Molecule `N=C(N)NCCCC(=O)NCC1OC(OC2OC(CNC(=O)CCCNC(=N)N)C(O)C(O)C2O)C(O)C(O)C1O` (centres undefined) yielded an Activity of 44.2. Under `N=C(N)NCC1OC(OC2OC(CNC(=N)N)C(O)C(O)C2O)C(O)C(O)C1O` (centres undefined) stands 44.2; under `N=C(N)NCC(=O)NCC1OC(OC2OC(CNC(=O)CNC(=N)N)C(O)C(O)C2O)C(O)C(O)C1O` (centres undefined), 44.2; under `NC(N)=NCCCC(N)C(=O)NCC1OC(OC2OC(CNC(=O)C(N)CCCN=C(N)N)C(O)C(O)C2O)C(O)C(O)C1O` (centres undefined), 44.2.
